Patent publication EP0556720B1, “5-Aminoflavone derivatives” (KYOWA HAKKO KOGYO CO., LTD., priority 1992, dated 1993)
Where a name gives a salt, the structure may show the parent alone.

Assays:
[1] = test system: MCF-7 cells; experiment: Human mammary cancer (MCF-7) growth inhibition test, neutral red staining; type: cell-based; conditions: MCF7, medium with 10^-8M estradiol, 72 hours culture with sample
Procedure: Human mammary cancer (MCF-7) growth inhibition test;
Each 0.1 ml of MCF-7 cells which had been prepared to 5 x 10^4/ml using a medium (referred to as Medium B hereinafter) prepared by adding 10% bovine fetal serum, 10^-8M estradiol (manufactured by Sigma), 100 units/ml penicillin and 100 µg/ml streptomycin to medium RPMI1640 was distributed in each well of 96 well-microtiter plate. The plate was cultured at 37 °C for 20 hours in a CO2 gas incubator, each 0.05 ml of samples (test compounds) which had been appropriately diluted with Medium B was added thereto and the mixture was cultured at 37 °C for 72 hours in a CO2 gas incubator. Supernatant was removed, each 0.1 ml of Medium B containing 0.02% neutral red was added to the residue, the mixture was cultured at 37 °C for 1 hour in a CO2 gas incubator and the cells were stained. IC50 was calculated according to the same manner as that in Test 2.

[2] = test system: HeLaS3 cells; experiment: Human uterine cervix carcinoma (HeLaS3) growth inhibition test, neutral red staining; type: cell-based; conditions: HeLa S3, 72 hours culture with sample, absorbance at 550 nm
Procedure: Human uterine cervix carcinoma (HeLaS3) growth inhibition test;
Each 0.1 ml of HeLaS3 cells which had been prepared to 3 x 10^4/ml using a medium (referred to as Medium A hereinafter) consisted of MEM medium, 2 mM glutamine and 10% bovine fetal serum was distributed in each well of 96 well-microtiter plate. The plate was cultured at 37 °C for 20 hours in a CO2 gas incubator, each 0.05 ml of samples (test compounds) which had been appropriately diluted with Medium A was added thereto and the mixture was cultured at 37 °C for 72 hours in a CO2 gas incubator. Supernatant was removed, each 0.1 ml of Medium A containing 0.02% neutral red was added to the residue, the mixture was cultured at 37 °C for 1 hour in a CO2 gas incubator and the cells were stained. Supernatant was removed and the residue was washed once with saline. Then, the pigment was extracted with 0.001N hydrochloric acid/30% ethanol and the absorbance at 550 nm was measured with a microplatereader.

| Structure (SMILES) | IC50 [1] [µM] | IC50 [2] [µM] |
| --- | --- | --- |
| Nc1ccc(-c2cc(=O)c3c(N)ccc(Cl)c3o2)cc1 [Compound 2, 5-Amino-2-(4-aminophenyl)-8-chloro-4H-1-benzopyran-4-one] | 0.37 | 3.2 |
| Nc1ccc(-c2cc(=O)c3c(N)c(Cl)cc(Cl)c3o2)cc1 [Compound 3, 5-Amino-2-(4-aminophenyl)-6,8-dichloro-4H-1-benzopyran-4-one] | 22 | 33 |
| Nc1ccc(-c2cc(=O)c3c(N)ccc(Br)c3o2)cc1 [Compound 5, 5-Amino-2-(4-aminophenyl)-8-bromo-4H-1-benzopyran-4-one] | – | 6.1 |
| Nc1ccc(-c2cc(=O)c3c(N)c(Br)cc(Br)c3o2)cc1 [Compound 6, 5-Amino-2-(4-aminophenyl)-6,8-dibromo-4H-1-benzopyran-4-one] | 27 | – |
| Nc1ccc(-c2cc(=O)c3c(N)c(F)ccc3o2)cc1 [Compound 8, 5-Amino-2-(4-aminophenyl)-6-fluoro-4H-1-benzopyran-4-one] | 0.14 | – |
| Nc1ccc(-c2cc(=O)c3c(N)ccc(F)c3o2)cc1 [Compound 10, 5-Amino-2-(4-aminophenyl)-8-fluoro-4H-1-benzopyran-4-one] | 0.25 | 21 |
| NCCCNc1ccc(-c2cc(=O)c3c(N)ccc(F)c3o2)cc1 [Compound 20, 5-Amino-2-[4-[(3-aminopropyl)amino]phenyl]-8-fluoro-4H-1-benzopyran-4-one] | 0.094 | 9.3 |
| NCCCNc1ccc(-c2cc(=O)c3c(N)c(F)cc(F)c3o2)cc1F [Compound 30, 5-Amino-2-[4-(3-aminopropylamino)-3-fluorophenyl]-6,8-difluoro-4H-1-benzopyran-4-one] | 0.039 | 14 |
| Nc1c(Cl)cc(-c2cc(=O)c3c(N)c(F)cc(F)c3o2)cc1Cl [Compound 35, 5-Amino-2-(4-amino-3,5-dichlorophenyl)-6,8-difluoro-4H-1-benzopyran-4-one] | 0.17 | – |
| Nc1c(Br)cc(-c2cc(=O)c3c(N)c(F)cc(F)c3o2)cc1Br [Compound 36, 5-Amino-2-(4-amino-3,5-dibromophenyl)-6,8-difluoro-4H-1-benzopyran-4-one] | 0.61 | – |
| CN(C)c1ccc(-c2cc(=O)c3c(N)c(F)cc(F)c3o2)cc1F [Compound 38, 5-Amino-6,8-difluoro-2-[4-(N,N-dimethylamino)-3-fluorophenyl]-4H-1-benzopyran-4-one] | – | 12 |
| CN(C)CCNc1ccc(-c2cc(=O)c3c(N)c(F)cc(F)c3o2)cc1F [Compound 40, 5-Amino-2-[4-[2-(N',N'-dimethylamino)ethylamino]-3-fluorophenyl]-6,8-difluoro-4H-1-benzopyran-4-one] | 0.23 | – |
| Nc1c(F)cc(F)c2oc(-c3ccc(NCCN4CCCC4)c(F)c3)cc(=O)c12 [Compound 41, 5-Amino-6,8-difluoro-2-[3-fluoro-4-[2-(pyrrolidin-1-yl)ethylamino]phenyl]-4H-1-benzopyran-4-one] | – | 5 |
| Nc1c(F)cc(F)c2oc(-c3ccc(NCCN4CCOCC4)c(F)c3)cc(=O)c12 [Compound 42, 5-Amino-6,8-difluoro-2-[3-fluoro-4-(2-morpholinoethylamino)phenyl]-4H-1-benzopyran-4-one] | 6.1 | – |
| CCOC(=O)CNc1ccc(-c2cc(=O)c3c(N)c(F)cc(F)c3o2)cc1F [Compound 44, 5-Amino-6,8-difluoro-2-(4-ethyoxycarbonylmethylamino-3-fluorophenyl)-4H-1-benzopyran-4-one] | 0.36 | – |
| COCCCNc1ccc(-c2cc(=O)c3c(N)c(F)cc(F)c3o2)cc1F [Compound 46, 5-Amino-6,8-difluoro-2-[3-fluoro-4-(3-methoxypropylamino)phenyl]-4H-1-benzopyran-4-one] | 0.11 | – |
| Nc1c(F)cc(F)c2oc(-c3ccc(NCCCCCCn4ccnc4)c(F)c3)cc(=O)c12 [Compound 52, 5-Amino-6,8-difluoro-2-[3-fluoro-4-[6-(imidazol-1-yl)hexylamino]phenyl]-4H-1-benzopyran-4-one] | 2 | 4.4 |
| CN(C)CCCCCCNc1ccc(-c2cc(=O)c3c(N)c(F)cc(F)c3o2)cc1F [Compound 53, 5-Amino-6,8-difluoro-2-[4-[6-(N',N'-dimethylamino)hexylamino]-3-fluorophenyl]-4H-1-benzopyran-4-one] | 6.2 | 6.8 |
| Nc1c(F)cc(F)c2oc(-c3ccc(NCCCCCCN4CCCC4)c(F)c3)cc(=O)c12 [Compound 54, 5-Amino-6,8-difluoro-2-[3-fluoro-4-[6-(pyrrolidin-1-yl)hexylamino]phenyl]-4H-1-benzopyran-4-one] | 5.9 | 6.1 |
| Nc1c(F)cc(F)c2oc(-c3ccc(NCCCCCCN4CCOCC4)c(F)c3)cc(=O)c12 [Compound 55, 5-Amino-6,8-difluoro-2-[3-fluoro-4-(6-morpholinohexylamino)phenyl]-4H-1-benzopyran-4-one] | – | 11 |
| CCOC(=O)CCCCCNc1ccc(-c2cc(=O)c3c(N)c(F)cc(F)c3o2)cc1F [Compound 56, 5-Amino-6,8-difluoro-2-[4-(5-ethoxycarbonylpentylamino)-3-fluorophenyl]-4H-1-benzopyran-4-one] | 0.91 | – |
| Nc1c(F)cc(F)c2oc(-c3ccc(NCCCCCC(=O)O)c(F)c3)cc(=O)c12 [Compound 57, Sodium salt of 5-amino-2-[4-(5-carboxypentylamino)-3-fluorophenyl]-6,8-difluoro-4H-1-benzopyran-4-one] | 0.73 | – |
| CCCCCCNc1c(F)cc(F)c2oc(-c3ccc(N(C)C)c(F)c3)cc(=O)c12 [Compound 58, 6,8-Difluoro-2-[4-(N,N-dimethyl)amino-3-fluorophenyl]-5-hexylamino-4H-1-benzopyran-4-one] | 0.34 | – |

The next lines start with the values.

| IC50 [1] [µM] | IC50 [2] [µM] | Structure (SMILES) |
| --- | --- | --- |
| 0.34 | – | CN(C)c1ccc(-c2cc(=O)c3c(NCCCCCCO)c(F)cc(F)c3o2)cc1F [Compound 60, 6,8-Difluoro-2-[4-(N,N-dimethyl)amino-3-fluorophenyl]-5-(6-hydroxyhexylamino)-4H-l-benzopyran-4-one] |
| 0.63 | – | COCCCCCCNc1c(F)cc(F)c2oc(-c3ccc(N(C)C)c(F)c3)cc(=O)c12 [Compound 61, 6,8-Difluoro-2-[4-(N,N-dimethyl)amino-3-fluorophenyl]-5-(6-methoxyhexylamino)-4H-1-benzopyran-4-one] |
| – | 7.1 | CN(C)CCCCCCNc1c(F)cc(F)c2oc(-c3ccc(N(C)C)c(F)c3)cc(=O)c12 [Compound 62, 6,8-Difluoro-2-[4-(N,N-dimethyl)amino-3-fluorophenyl]-5-[6-(N',N'-dimethylamino)hexylamino]-4H-1-benzopyran-4-one] |
| – | 7 | CN(C)c1ccc(-c2cc(=O)c3c(NCCCCCCN4CCCC4)c(F)cc(F)c3o2)cc1F [Compound 63, 6,8-Difluoro-2-[4-(N,N-dimethyl)amino-3-fluorophenyl]-5-[6-(pyrrolidin-1-yl)hexylamino]-4H-1-benzopyran-4-one] |
| – | 3 | CN(C)c1ccc(-c2cc(=O)c3c(NCCCCCCn4ccnc4)c(F)cc(F)c3o2)cc1F [Compound 64, 6,8-Difluoro-2-[4-(N,N-dimethyl)amino-3-fluorophenyl]-5-[6-(imidazol-1-yl)hexylamino]-4H-1-benzopyran-4-one] |
| – | 7 | CN(C)c1ccc(-c2cc(=O)c3c(NCCCCCCN)c(F)cc(F)c3o2)cc1F [Compound 65, 5-(6-Aminohexylamino)-6,8-difluoro-2-[4-(N,N-dimethyl)amino-3-fluorophenyl]-4H-1-benzopyran-4-one] |
| – | 9.4 | CCCCCCNc1c(F)cc(F)c2oc(-c3ccc(N)c(F)c3)cc(=O)c12 [Compound 67, 2-(4-Amino-3-fluorophenyl)-6,8-difluoro-5-hexylamino-4H-1-benzopyran-4-one] |
| 6 | – | CC(Cl)CCCCNc1c(F)cc(F)c2oc(-c3ccc(N)c(F)c3)cc(=O)c12 (stereo not shown) [Compound 69, 2-(4-Amino-3-fluorophenyl)-5-(5-chlorohexylamino)-6,8-difluoro-4H-1-benzopyran-4-one] |
| – | 12 | CC(C)CCCNc1c(F)cc(F)c2oc(-c3ccc(N)c(F)c3)cc(=O)c12 [Compound 71, 2-(4-Amino-3-fluorophenyl)-6,8-difluoro-5-(4-methylpentylamino)-4H-1-benzopyran-4-one] |
| – | 16 | CCCCCCNc1c(F)cc(F)c2oc(-c3ccc(NCC(=O)O)c(F)c3)cc(=O)c12 [Compound 75, 2-(4-Carboxymethylamino-3-fluorophenyl)-6,8-difluoro-5-hexylamino-4H-1-benzopyran-4-one] |
| – | 11 | C=CCCCCNc1c(F)cc(F)c2oc(-c3ccc(NC)c(F)c3)cc(=O)c12 [Compound 77, 6,8-Difluoro-2-(3-fluoro-4-methylaminophenyl)-5-(5-hexenylamino)-4H-1-benzopyran-4-one] |
| – | 7.5 | CCCCCNc1c(F)cc(F)c2oc(-c3ccc(NCCCN)c(F)c3)cc(=O)c12 [Compound 79, 2-[4-(3-Aminopropylamino)-3-fluorophenyl]-6,8-difluoro-5-pentylamino-4H-1-benzopyran-4-one] |
